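Five compound concentrations were applied to cells in 96-well plates for 48 hours; endpoints were derived by simple linear interpolation of the resulting dose-response curve. TGI denotes the concentration required for complete inhibition of growth.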
System: MDA-N
Experiment: NCI anticancer screen, dose series, 48 h

Row | Structure (SMILES) | TGI
1 | Cc1ccccc1Nc1cn(COCc2ccccc2)c(=O)[nH]c1=O | > 100 µM
2 | COc1ccc(-c2c(C(C)=O)c(-c3ccccc3)n(C3OC(COC(C)=O)C(OC(C)=O)C(OC(C)=O)C3OC(C)=O)c(=S)c2C#N)cc1 (centres undefined) | > 100 µM
3 | Cn1c(=O)c2c(nc(NCCCCl)n2CC(=O)NCCCCl)n(C)c1=O | > 100 µM
4 | CCOC(=O)Cn1sc2ncc([N+](=O)[O-])cc2c1=O | 24.9 µM
5 | NS(=O)(=O)c1nnc(NC(=O)c2ccccc2)s1 | > 100 µM
6 | CC(=O)OCC1OC(N2C(c3ccccc3)=CC(c3ccccc3)C(C#N)=C2S)C(OC(C)=O)C(OC(C)=O)C1OC(C)=O (centres undefined) | 15.1 µM
7 | C/C(=N\NC(=S)N1CC2CCC(CC2)C1)c1ccncn1 | 15.4 µM

System: OVCAR-3 ovarian
Experiment: NCI anticancer screen, dose series, 48 h

Row | Structure (SMILES) | TGI
8 | O=C1c2ccccc2S[C@@H](O)[C@@H]2CCCN12 | > 100 µM
9 | Cc1cc(=O)[nH]c(NNC(C#N)c2ccc(O)cc2)n1 (centres undefined) | > 100 µM
10 | COc1ccc(OC)c2c1C(=O)C(Cl)=C(N1CCN(CCOCCO)CC1)C2=O | 31.1 µM
11 | O=C(CSc1nnc(Cc2ccccc2)o1)Nc1cccc([N+](=O)[O-])c1 | > 100 µM
12 | COc1cccc(C2c3cc4c(cc3OC(N3CCCC3)C2C)OCO4)c1 (centres undefined) | 28.6 µM
13 | CN(C)/N=C(\CCN1CCCC1)CC(c1ccccc1)c1c(O)c2ccccc2oc1=O (centres undefined) | > 100 µM
14 | O=P(c1ccccc1)(c1ccccc1)C(NCc1ccccc1)c1ccc(F)cc1 (centres undefined) | 27.6 µM
15 | C1=C2C3=[N+](CCCC3)CC2Cc2ccsc21 (centres undefined) | > 100 µM
16 | CC(=O)NCc1nc(C#N)c(N)o1 | > 100 µM
17 | Clc1ccc2c(NCCCCN=Cc3ccccc3)ccnc2c1 | 41.9 µM
18 | COc1cc2c(c(OC)c1OC)-c1ccc(SC)c(=O)cc1C(CC(=O)Oc1ccc([N+](=O)[O-])cc1)C2 (centres undefined) | 0.905 µM
19 | CC(=O)NC(CCCN)C(=O)NCc1ccccc1 (centres undefined) | > 100 µM
20 | Cc1[nH]c(=O)[nH]c(=S)c1C(=O)NC(C)(CO)CO | > 100 µM
21 | Cc1cc(O)c(/C=N/C(=S)NCCc2ccccc2)c(=O)o1 | > 100 µM
22 | Cc1ccccc1Nc1cn(COCc2ccccc2)c(=O)[nH]c1=O | > 100 µM
23 | COc1ccc(-c2c(C(C)=O)c(-c3ccccc3)n(C3OC(COC(C)=O)C(OC(C)=O)C(OC(C)=O)C3OC(C)=O)c(=S)c2C#N)cc1 (centres undefined) | > 100 µM
24 | Cc1oc2nc(N(C)C)nc(Cl)c2c1C | > 100 µM
25 | Cn1c(=O)c2c(nc(NCCCCl)n2CC(=O)NCCCCl)n(C)c1=O | > 100 µM
26 | CCCCCCCCCCCCCCCCCc1cccc(OCOCCOC)c1CO | > 100 µM
27 | CCOC(=O)Cn1sc2ncc([N+](=O)[O-])cc2c1=O | 33.4 µM
28 | O=C1CCC(c2ccccc2)C(O)(C(=O)O)C1 (centres undefined) | > 100 µM
29 | N#CCCN(CCC#N)c1ccc(C(=O)NN)cc1 | > 100 µM
30 | NS(=O)(=O)c1nnc(NC(=O)c2ccccc2)s1 | > 100 µM
31 | CC1=CC(=O)NP(=O)(Oc2ccc(C)cc2)N1 (centres undefined) | > 100 µM
32 | CC(=O)OCC1OC(N2C(c3ccccc3)=CC(c3ccccc3)C(C#N)=C2S)C(OC(C)=O)C(OC(C)=O)C1OC(C)=O (centres undefined) | > 63.1 µM
33 | CC(=O)OC1CC2OC(Cc3ccccc32)O1 (centres undefined) | > 100 µM
34 | COC(=O)CCC(=O)NC1c2cccc3cccc(c23)Cn2c(=O)n(C)c(=O)n21 (centres undefined) | > 100 µM
35 | CCOC(=O)CC(NC(=O)c1nc[nH]c1[N+](=O)[O-])C(=O)OCC (centres undefined) | > 100 µM
36 | N#[O+].O=S(=O)([O-])[O-].[NH2-].[NH2-].[NH2-].[NH2-].[NH2-].[Ru+5] | > 100 µM

System: PC-3 prostate
Experiment: NCI anticancer screen, dose series, 48 h

Row | Structure (SMILES) | TGI
37 | COc1ccc(OC)c2c1C(=O)C(Cl)=C(N1CCN(CCOCCO)CC1)C2=O | 16 µM
38 | COc1cccc(C2c3cc4c(cc3OC(N3CCCC3)C2C)OCO4)c1 (centres undefined) | 46.9 µM
39 | C1=C2C3=[N+](CCCC3)CC2Cc2ccsc21 (centres undefined) | > 100 µM
40 | CC(=O)NCc1nc(C#N)c(N)o1 | > 100 µM
41 | Clc1ccc2c(NCCCCN=Cc3ccccc3)ccnc2c1 | 25.1 µM
42 | Cc1[nH]c(=O)[nH]c(=S)c1C(=O)NC(C)(CO)CO | > 100 µM
43 | Cc1cc(O)c(/C=N/C(=S)NCCc2ccccc2)c(=O)o1 | > 100 µM
44 | Cc1ccccc1Nc1cn(COCc2ccccc2)c(=O)[nH]c1=O | > 100 µM
45 | Cc1oc2nc(N(C)C)nc(Cl)c2c1C | > 100 µM
46 | Cn1c(=O)c2c(nc(NCCCCl)n2CC(=O)NCCCCl)n(C)c1=O | > 100 µM
47 | CCCCCCCCCCCCCCCCCc1cccc(OCOCCOC)c1CO | > 100 µM
48 | CCOC(=O)Cn1sc2ncc([N+](=O)[O-])cc2c1=O | 28 µM
49 | C/C(=N\NC(=S)N1CC2CCC(CC2)C1)c1ccncn1 | 15 µM
50 | COC(=O)CCC(=O)NC1c2cccc3cccc(c23)Cn2c(=O)n(C)c(=O)n21 (centres undefined) | > 100 µM

System: RPMI-8226 leukemia
Experiment: NCI anticancer screen, dose series, 48 h

Row | Structure (SMILES) | TGI
51 | O=C1c2ccccc2S[C@@H](O)[C@@H]2CCCN12 | > 100 µM
52 | Cc1cc(=O)[nH]c(NNC(C#N)c2ccc(O)cc2)n1 (centres undefined) | > 100 µM
53 | COc1ccc(OC)c2c1C(=O)C(Cl)=C(N1CCN(CCOCCO)CC1)C2=O | 26.5 µM
54 | O=C(CSc1nnc(Cc2ccccc2)o1)Nc1cccc([N+](=O)[O-])c1 | > 100 µM
55 | COc1cccc(C2c3cc4c(cc3OC(N3CCCC3)C2C)OCO4)c1 (centres undefined) | 24.3 µM
56 | CN(C)/N=C(\CCN1CCCC1)CC(c1ccccc1)c1c(O)c2ccccc2oc1=O (centres undefined) | > 100 µM
57 | O=P(c1ccccc1)(c1ccccc1)C(NCc1ccccc1)c1ccc(F)cc1 (centres undefined) | > 100 µM
58 | CC(=O)NCc1nc(C#N)c(N)o1 | > 100 µM
59 | Clc1ccc2c(NCCCCN=Cc3ccccc3)ccnc2c1 | > 100 µM
60 | COc1cc2c(c(OC)c1OC)-c1ccc(SC)c(=O)cc1C(CC(=O)Oc1ccc([N+](=O)[O-])cc1)C2 (centres undefined) | > 63 µM
61 | CC(=O)NC(CCCN)C(=O)NCc1ccccc1 (centres undefined) | > 100 µM
62 | Cc1ccccc1Nc1cn(COCc2ccccc2)c(=O)[nH]c1=O | > 100 µM
63 | Cc1oc2nc(N(C)C)nc(Cl)c2c1C | > 100 µM
64 | Cn1c(=O)c2c(nc(NCCCCl)n2CC(=O)NCCCCl)n(C)c1=O | > 100 µM
65 | CCCCCCCCCCCCCCCCCc1cccc(OCOCCOC)c1CO | > 100 µM
66 | CCOC(=O)Cn1sc2ncc([N+](=O)[O-])cc2c1=O | > 100 µM
67 | O=C1CCC(c2ccccc2)C(O)(C(=O)O)C1 (centres undefined) | > 100 µM
68 | N#CCCN(CCC#N)c1ccc(C(=O)NN)cc1 | > 100 µM
69 | NS(=O)(=O)c1nnc(NC(=O)c2ccccc2)s1 | > 100 µM
70 | CC1=CC(=O)NP(=O)(Oc2ccc(C)cc2)N1 (centres undefined) | > 100 µM
71 | CC(=O)OCC1OC(N2C(c3ccccc3)=CC(c3ccccc3)C(C#N)=C2S)C(OC(C)=O)C(OC(C)=O)C1OC(C)=O (centres undefined) | > 100 µM
72 | CC(=O)OC1CC2OC(Cc3ccccc32)O1 (centres undefined) | > 100 µM
73 | COC(=O)CCC(=O)NC1c2cccc3cccc(c23)Cn2c(=O)n(C)c(=O)n21 (centres undefined) | > 100 µM
74 | CCOC(=O)CC(NC(=O)c1nc[nH]c1[N+](=O)[O-])C(=O)OCC (centres undefined) | > 100 µM

System: SF-295 CNS
Experiment: NCI anticancer screen, dose series, 48 h

Row | Structure (SMILES) | TGI
75 | O=C1c2ccccc2S[C@@H](O)[C@@H]2CCCN12 | > 100 µM
76 | Cc1cc(=O)[nH]c(NNC(C#N)c2ccc(O)cc2)n1 (centres undefined) | > 100 µM
77 | COc1ccc(OC)c2c1C(=O)C(Cl)=C(N1CCN(CCOCCO)CC1)C2=O | 32.9 µM
78 | O=C(CSc1nnc(Cc2ccccc2)o1)Nc1cccc([N+](=O)[O-])c1 | > 100 µM
79 | COc1cccc(C2c3cc4c(cc3OC(N3CCCC3)C2C)OCO4)c1 (centres undefined) | 37.8 µM
80 | CN(C)/N=C(\CCN1CCCC1)CC(c1ccccc1)c1c(O)c2ccccc2oc1=O (centres undefined) | > 100 µM
81 | O=P(c1ccccc1)(c1ccccc1)C(NCc1ccccc1)c1ccc(F)cc1 (centres undefined) | 29.4 µM
82 | C1=C2C3=[N+](CCCC3)CC2Cc2ccsc21 (centres undefined) | > 100 µM
83 | CC(=O)NCc1nc(C#N)c(N)o1 | > 100 µM
84 | Clc1ccc2c(NCCCCN=Cc3ccccc3)ccnc2c1 | 28 µM
85 | COc1cc2c(c(OC)c1OC)-c1ccc(SC)c(=O)cc1C(CC(=O)Oc1ccc([N+](=O)[O-])cc1)C2 (centres undefined) | > 45.6 µM
86 | CC(=O)NC(CCCN)C(=O)NCc1ccccc1 (centres undefined) | > 100 µM
87 | Cc1[nH]c(=O)[nH]c(=S)c1C(=O)NC(C)(CO)CO | > 100 µM
88 | Cc1cc(O)c(/C=N/C(=S)NCCc2ccccc2)c(=O)o1 | > 100 µM
89 | Cc1ccccc1Nc1cn(COCc2ccccc2)c(=O)[nH]c1=O | > 100 µM
90 | COc1ccc(-c2c(C(C)=O)c(-c3ccccc3)n(C3OC(COC(C)=O)C(OC(C)=O)C(OC(C)=O)C3OC(C)=O)c(=S)c2C#N)cc1 (centres undefined) | > 100 µM
91 | Cc1oc2nc(N(C)C)nc(Cl)c2c1C | > 100 µM
92 | Cn1c(=O)c2c(nc(NCCCCl)n2CC(=O)NCCCCl)n(C)c1=O | > 100 µM
93 | CCCCCCCCCCCCCCCCCc1cccc(OCOCCOC)c1CO | > 100 µM
94 | CCOC(=O)Cn1sc2ncc([N+](=O)[O-])cc2c1=O | 34.8 µM
95 | O=C1CCC(c2ccccc2)C(O)(C(=O)O)C1 (centres undefined) | > 100 µM
96 | N#CCCN(CCC#N)c1ccc(C(=O)NN)cc1 | > 100 µM
97 | NS(=O)(=O)c1nnc(NC(=O)c2ccccc2)s1 | > 100 µM
98 | CC1=CC(=O)NP(=O)(Oc2ccc(C)cc2)N1 (centres undefined) | > 100 µM
99 | CC(=O)OCC1OC(N2C(c3ccccc3)=CC(c3ccccc3)C(C#N)=C2S)C(OC(C)=O)C(OC(C)=O)C1OC(C)=O (centres undefined) | 10.1 µM
100 | CC(=O)OC1CC2OC(Cc3ccccc32)O1 (centres undefined) | > 100 µM
101 | C/C(=N\NC(=S)N1CC2CCC(CC2)C1)c1ccncn1 | 4.94 µM
102 | COC(=O)CCC(=O)NC1c2cccc3cccc(c23)Cn2c(=O)n(C)c(=O)n21 (centres undefined) | > 100 µM
103 | CCOC(=O)CC(NC(=O)c1nc[nH]c1[N+](=O)[O-])C(=O)OCC (centres undefined) | > 100 µM
104 | N#[O+].O=S(=O)([O-])[O-].[NH2-].[NH2-].[NH2-].[NH2-].[NH2-].[Ru+5] | > 100 µM

System: SF-539 CNS
Experiment: NCI anticancer screen, dose series, 48 h

Row | Structure (SMILES) | TGI
105 | O=C1c2ccccc2S[C@@H](O)[C@@H]2CCCN12 | > 100 µM
106 | Cc1cc(=O)[nH]c(NNC(C#N)c2ccc(O)cc2)n1 (centres undefined) | > 100 µM
107 | COc1ccc(OC)c2c1C(=O)C(Cl)=C(N1CCN(CCOCCO)CC1)C2=O | 32.8 µM
108 | O=C(CSc1nnc(Cc2ccccc2)o1)Nc1cccc([N+](=O)[O-])c1 | > 100 µM
109 | COc1cccc(C2c3cc4c(cc3OC(N3CCCC3)C2C)OCO4)c1 (centres undefined) | 24.9 µM
110 | CN(C)/N=C(\CCN1CCCC1)CC(c1ccccc1)c1c(O)c2ccccc2oc1=O (centres undefined) | > 100 µM
111 | O=P(c1ccccc1)(c1ccccc1)C(NCc1ccccc1)c1ccc(F)cc1 (centres undefined) | 36.2 µM
112 | CC(=O)NCc1nc(C#N)c(N)o1 | > 100 µM
113 | Clc1ccc2c(NCCCCN=Cc3ccccc3)ccnc2c1 | 24.7 µM
114 | COc1cc2c(c(OC)c1OC)-c1ccc(SC)c(=O)cc1C(CC(=O)Oc1ccc([N+](=O)[O-])cc1)C2 (centres undefined) | 0.636 µM

Source: PubChem BioAssay (NCI)
